Test results reported in patent US8481011B2, “Use of polyunsaturated compounds as whitening agents” (Pierre Fabre Dermo-Cosmetique, priority 2005, dated 2013).

Legend:
Assay type in all cases: cell-based
B16 murine melanocytes [1] = assay: Study of depigmenting activity (melanin dosage); settings: at infratoxic doses, in words
Description: The objective of these tests is to measure the depigmenting activity of new retinoids according to their concentration.
The melanin is dosed according to the method described by S. Besson et al., Dermatology Archives. 133:331-336 (1997)′.
Digestion plug: 100 mM NaCl, to mm-Tri-HCl, 1% SDS, 50 mM EDTA, pH 8.
For 50 ml: 292 mg NaCl, 299 mg tris acid, 73 mg tris base, 931 mg EDTA disodium dehydrate, 500 mg SDS, adjust pH (≈5.5) to 8.0 with concentrated NaOH.
K proteinase 10 mg/ml in the digestion plug.
Prepare tubes containing synthetic melanin at concentrations of between 2.5 and 80 μg/ml in the DMSO.
For the cells, determine the protein concentration beforehand, centrifuge in 2 ml tubes and remove the supernatant.
In 2 ml tubes containing a cell remainder, add 300 μl of digestion buffer and 3 μl of K proteinase.
Incubate for 2 hours at 50° C., then a night at 37° C.
Top up the volume to 1 ml with water, then sound test.
Centrifuge for 10 minutes at 20,000 g, drain off all the supernatant (clear) then dissolve the dry melanin remainder in 500-1000 μl of DMSO.
Measure the absorbency at 375 nm and check the spectrum.

B16 murine melanocytes [2] = assay: MTT cellular respiration toxicity test on B16 melanocytes; settings: for IC50: toxicity; for % MTT: concentration 10 μM, cell viability
From the text: (§1) The objective of these tests is to measure the toxicity of the new retinoids on keratinocyte and melanocyte cells.
(§2) The method used is a cellular respiration test with the MTT (thiazolile blue) in order to assess cells that are still living.
(§3) The MTT test gives a cellular respiration index; this involves a substrate of dehydrogenases in general and dehydrogenase succinate in particular. The MTT, yellow, partially soluble in water, is reduced in a violet compound, insoluble in water, but soluble in organic solvents (DMSO).
(§4) Prepare a 12 mM solution (5 mg/ml) of MTT in water or the culture medium.
(§5) Dilute this solution to 1:10 in the supernatant fluid or suspension of cells (final MTT 1.2 mM or 0.5 mg/ml), then leave to incubate for 3 hours at 37° C.
(§6) Aspirate the supernatant fluid, the dissolve the violet crystals of formazan MTT in DMSO.
(§7) Read the optical density of the solution at 550 nm (dilute beforehand as required).
(§8) Calibration line: MTT formazan 0-200 μM.

[3] = system: BDV II murine keratinocytes; assay: MTT cellular respiration toxicity test on BDV II keratinocytes; settings: for % MTT / IC50: BDV II murine keratinocytes; for % MTT: concentration 10 μM, cell viability; for IC50: toxicity; for toxicity ranking on BDV II keratinocytes: ranking in words, viability according to concentration
From the text: as §1, §2, §3, §4, §5, §6, §7, §8

Row | Compound | depigmenting activity (melanin) (B16 murine melanocytes [1]) | IC50 (B16 murine melanocytes [2]; Mus musculus, Melanocyte) | % MTT (B16 murine melanocytes [2]) | % MTT [3] | IC50 ([3]; Mus musculus, Keratinocyte) | IC50 (B16 murine melanocytes [2]) | IC50 [3] | toxicity ranking on BDV II keratinocytes [3]
1 | CC1=C(/C=C/C(C)=C/C=C/C(C)=C/C(=O)OC(C)(C)C)C(C)(C)CCC1=O [Example 3, tert-butylic ester of (2E,4E,6E,8E)-3,7-dimethyl-9-(2,6,6-trimethyl-3-oxo-cyclohex-1-enyl)-nona-2,4,6,8-tetraenoic acid] | net depigmenting efficacy promotes | 30 µM | 80% | 85% | 60 µM |  |  | 
2 | CC1=C(/C=C/C(C)=C/C=C/C(C)=C/C(=O)OC(C)(C)C)C(C)(C)CCC1O (centres unmarked) [Example 4, tert-butylic ester of (2E,4E,6E,8E)-9-(3-hydroxy-2,6,6-trimethyl-cyclohex-1-enyl)-3,7-dimethyl-nona-2,4,6,8-tetraenoic acid] |  | 20 µM | 62% | 84% | 70 µM |  |  | 
3 | COC(=O)/C=C(C)/C=C/C=C(C)/C=C/C1=C(C)C(=O)CCC1(C)C [Example 5, Methylic ester of (2E,4E,6E,8E)-9-[3-(3-oxo)-2,6,6-trimethyl-cyclohex-1-enyl]-3,7-dimethyl-nona-2,4,6,8-tetraenoic acid] | net depigmenting efficacy promotes |  | 86% | 59% |  | 60 µM | 15 µM | then examples 5 and 6
4 | CC1=C(/C=C/C(C)=C/C=C/C(C)=C/C(=O)O)C(C)(C)CCC1O (centres unmarked) [Example 7, (2E,4E,6E,8E)-9-[3-(3-hydroxy)-2,6,6-trimethyl-cyclohex-1-enyl]-3,7-dimethyl-nona-2,4,6,8-tetraenoic acid] |  | 35 µM | 69% | 86% | > 100 µM |  |  | least toxic
5 | CC(=O)OC1CCC(C)(C)C(/C=C/C(C)=C/C=C/C(C)=C/C(=O)OC(C)(C)C)=C1C (centres unmarked) [Example 8, tert-butylic ester of (2E,4E,6E,8E)-9-[3-(3-acetoxy)-2,6,6-trimethyl-cyclohex-1-enyl]-3,7-dimethyl-nona-2,4,6,8-tetraenoic acid] | net depigmenting efficacy promotes | 60 µM | 82% | 82% | > 100 µM |  |  | least toxic
6 | CC(=O)OC/C=C(C)/C=C/C=C(C)/C=C/C1=C(C)C(=O)CCC1(C)C [Example 11, (2E,4E,6E,8E)-9-[3-(3-oxo)-2,6,6-trimethyl-cyclohex-1-enyl]-3,7-dimethyl-nona-2,4,6,8-tetraenyl acetate] |  | 70 µM | 86% | 60% | 30 µM |  |  | 
7 | CC1=C(/C=C/C(C)=C/C=C/C(C)=C/C(=O)O)C(C)(C)CCC1=O [Example 405, 4-oxoretinoic acid] |  |  | 76% | 78% |  | > 100 µM | > 100 µM | 
8 | CC1=C(/C=C/C(C)=C/C=C/C(C)=C/C(=O)O)C(C)(C)CCC1 [RA, Retinoic acid, reference compound] |  | 10 µM | 50% | 40% | 3 µM |  |  | 
